Measurements reported in patent US20180148418A1, “AMIDO-SUBSTITUTED CYCLOHEXANE DERIVATIVES” (Bayer Pharma Aktiengesellschaft, priority 2015, published 2018).

Assays:
TNKS1 = biological target: T1, TNKS1 (Homo sapiens, UniProt O95271); test: TNKS1 Assay B (auto-parsylation, [3H]-NAD+ SPA); format: biochemical; conditions: 6 nM TNKS1, auto-parsylation, over night at room temperature
T1 construct: purchased BPS Bioscience, San Diego, USA 80579 (TNKS1 Histone Ribosylation Assay Kit)
T1 sequence (O95271 1-1327): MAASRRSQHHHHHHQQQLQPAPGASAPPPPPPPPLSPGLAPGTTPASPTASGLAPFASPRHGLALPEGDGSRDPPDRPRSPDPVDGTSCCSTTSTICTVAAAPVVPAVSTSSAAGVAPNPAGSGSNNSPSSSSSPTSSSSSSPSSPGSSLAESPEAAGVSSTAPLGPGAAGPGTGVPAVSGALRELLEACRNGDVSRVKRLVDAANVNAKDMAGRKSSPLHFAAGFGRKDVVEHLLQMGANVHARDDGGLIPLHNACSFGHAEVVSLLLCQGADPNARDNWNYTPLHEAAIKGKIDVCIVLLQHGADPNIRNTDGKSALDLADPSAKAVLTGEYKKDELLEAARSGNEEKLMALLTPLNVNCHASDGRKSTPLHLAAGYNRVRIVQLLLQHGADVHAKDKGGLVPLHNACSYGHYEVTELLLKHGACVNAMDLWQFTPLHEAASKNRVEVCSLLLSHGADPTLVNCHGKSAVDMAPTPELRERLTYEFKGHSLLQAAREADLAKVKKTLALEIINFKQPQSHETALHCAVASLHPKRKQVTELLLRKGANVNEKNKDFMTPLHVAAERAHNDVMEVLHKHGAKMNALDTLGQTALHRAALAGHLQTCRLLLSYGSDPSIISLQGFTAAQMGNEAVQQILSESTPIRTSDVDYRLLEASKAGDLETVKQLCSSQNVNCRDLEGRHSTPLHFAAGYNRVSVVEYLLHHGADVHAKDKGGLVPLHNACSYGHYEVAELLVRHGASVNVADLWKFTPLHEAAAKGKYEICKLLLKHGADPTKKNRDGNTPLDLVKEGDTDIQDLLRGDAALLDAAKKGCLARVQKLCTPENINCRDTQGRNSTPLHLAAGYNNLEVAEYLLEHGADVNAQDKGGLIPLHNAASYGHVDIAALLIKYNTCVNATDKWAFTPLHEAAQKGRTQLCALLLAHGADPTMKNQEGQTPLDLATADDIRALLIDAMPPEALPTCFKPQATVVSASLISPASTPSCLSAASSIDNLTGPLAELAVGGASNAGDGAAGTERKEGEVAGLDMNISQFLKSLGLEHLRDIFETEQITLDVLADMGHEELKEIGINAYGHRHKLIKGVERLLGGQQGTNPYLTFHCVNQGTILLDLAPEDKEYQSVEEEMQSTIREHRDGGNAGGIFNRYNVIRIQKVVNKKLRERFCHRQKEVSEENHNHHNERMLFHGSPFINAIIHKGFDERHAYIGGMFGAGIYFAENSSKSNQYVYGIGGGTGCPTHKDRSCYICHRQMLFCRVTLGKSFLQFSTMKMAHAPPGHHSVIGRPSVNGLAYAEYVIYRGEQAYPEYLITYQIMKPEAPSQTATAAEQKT

[1] = tested on: HEK293 cells cotransfected with the FOP control vector; test: HEK293 FOP assay (control reporter with non-functional TCF elements); format: cell-based; conditions: Homo sapiens, 16 hours
Method in brief: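 Stable HEK293 line carrying FOP control reporter (randomized non-functional TCF sites, with pcDNA3), Geneticin-selected, plated 24 h before assay. Stimulated with recombinant human Wnt-3a (2500-5 ng/ml) and compounds 50 μM–15 nM (3.16-fold steps) in CAFTY buffer pH 7.4 with 2 mM Ca2+, 0.01% BSA, run parallel to TOP line.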

SMILES | IC50 (TNKS1) [nM] | IC50 [1] [nM]
CC(=O)c1cnc2c(C(=O)N[C@H]3CC[C@H](C(=O)Nc4ccc(F)cc4Cl)CC3)cnn2c1C [Example 46, 6-acetyl-N-{trans-4-[(2-chloro-4-fluorophenyl)carbamoyl]cyclohexyl}-7-methylpyrazolo[1,5-a]pyrimidine-3-carboxamide] | 65 | ≥ 50000
O=C(N[C@H]1CC[C@H](C(=O)Nc2ccc(F)cc2Cl)CC1)c1cnc2ccc(Cl)nn12 [Example 47, 6-chloro-N-{trans-4-[(2-chloro-4-fluorophenyl)carbamoyl]cyclohexyl}imidazo[1,2-b]pyridazine-3-carboxamide] | 530 | 16000
O=C(N[C@H]1CC[C@H](C(=O)Nc2ccc(F)cc2Cl)CC1)c1cnc2ccc(N3CCOCC3)nn12 [Example 48, N-{trans-4-[(2-chloro-4-fluorophenyl)carbamoyl]cyclohexyl}-6-(morpholin-4-yl)imidazo[1,2-b]pyridazine-3-carboxamide] | 410 | 14000
CN1CCN(c2ccc3ncc(C(=O)N[C@H]4CC[C@H](C(=O)Nc5ccc(F)cc5Cl)CC4)n3n2)CC1 [Example 49, N-{trans-4-[(2-chloro-4-fluorophenyl)carbamoyl]cyclohexyl}-6-(4-methylpiperazin-1-yl)imidazo[1,2-b]pyridazine-3-carboxamide] | 400 | 32000
COc1ccc2ncc(C(=O)N[C@H]3CC[C@H](C(=O)Nc4ccc(F)cc4Cl)CC3)n2n1 [Example 50, N-{trans-4-[(2-chloro-4-fluorophenyl)carbamoyl]cyclohexyl}-6-methoxyimidazo[1,2-b]pyridazine-3-carboxamide] | 110 | ≥ 50000
O=C(N[C@H]1CC[C@H](C(=O)Nc2ccc(F)cc2Cl)CC1)c1cnc2ccc(N3CCCC3)nn12 [Example 51, N-{trans-4-[(2-chloro-4-fluorophenyl)carbamoyl]cyclohexyl}-6-(pyrrolidin-1-yl)imidazo[1,2-b]pyridazine-3-carboxamide] | 83 | ≥ 50000
CN(C)c1ccc2ncc(C(=O)N[C@H]3CC[C@H](C(=O)Nc4ccc(F)cc4Cl)CC3)n2n1 [Example 52, N-{trans-4-[(2-chloro-4-fluorophenyl)carbamoyl]cyclohexyl}-6-(dimethylamino)imidazo[1,2-b]pyridazine-3-carboxamide] | 22 | 40000
CNc1ccc2ncc(C(=O)N[C@H]3CC[C@H](C(=O)Nc4ccc(F)cc4Cl)CC3)n2n1 [Example 53, N-{trans-4-[(2-chloro-4-fluorophenyl)carbamoyl]cyclohexyl}-6-(methylamino)imidazo[1,2-b]pyridazine-3-carboxamide] | 150 | ≥ 50000
Cc1c(C(C)O)cnc2c(C(=O)N[C@H]3CC[C@H](C(=O)Nc4ccc(F)cc4Cl)CC3)cnn12 (stereo partly drawn) [Example 58, N-{trans-4-[(2-chloro-4-fluorophenyl)carbamoyl]cyclohexyl}-6-(1-hydroxyethyl)-7-methylpyrazolo[1,5-a]pyrimidine-3-carboxamide] | 740 | ≥ 50000
Nc1nn2cccnc2c1C(=O)N[C@H]1CC[C@H](C(=O)Nc2ccc(F)cc2Cl)CC1 [Example 59, 2-amino-N-{trans-4-[(2-chloro-4-fluorophenyl)carbamoyl]cyclohexyl}pyrazolo[1,5-a]pyrimidine-3-carboxamide] | 950 | ≥ 50000
Cc1cc(C(C)(C)C)n2ncc(C(=O)N[C@H]3CC[C@H](C(=O)Nc4ccc(F)cc4Cl)CC3)c2n1 [Example 60, 7-tert-butyl-N-{trans-4-[(2-chloro-4-fluorophenyl)carbamoyl]cyclohexyl}-5-methylpyrazolo[1,5-a]pyrimidine-3-carboxamide] | > 10000 | 24000
Cc1cnc2c(C(=O)N[C@H]3CC[C@H](C(=O)Nc4ccc(F)cc4Cl)CC3)cnn2c1 [Example 61, N-{trans-4-[(2-chloro-4-fluorophenyl)carbamoyl]cyclohexyl}-6-methylpyrazolo[1,5-a]pyrimidine-3-carboxamide] | 120 | ≥ 50000
Cc1cc(C2CC2)nc2c(C(=O)N[C@H]3CC[C@H](C(=O)Nc4ccc(F)cc4Cl)CC3)cnn12 [Example 62, N-{trans-4-[(2-chloro-4-fluorophenyl)carbamoyl]cyclohexyl}-5-cyclopropyl-7-methylpyrazolo[1,5-a]pyrimidine-3-carboxamide] | > 10000 | ≥ 50000
CNC(=O)c1nc[nH]c1C(=O)N[C@H]1CC[C@H](C(=O)Nc2cc(C)c(F)cc2Cl)CC1 [Example 63, N^5-{trans-4-[(2-chloro-4-fluoro-5-methylphenyl)carbamoyl]cyclohexyl}-N^4-methyl-1H-imidazole-4,5-dicarboxamide] | 57 | ≥ 50000
Cc1cc(NC(=O)[C@H]2CC[C@H](NC(=O)c3[nH]cnc3C(=O)NCC3CCCO3)CC2)c(Cl)cc1F (stereo partly drawn) [Example 64, N^5-{trans-4-[(2-chloro-4-fluoro-5-methylphenyl)carbamoyl]cyclohexyl}-N^4-(tetrahydrofuran-2-ylmethyl)-1H-imidazole-4,5-dicarboxamide] | 59 | 27000
COCC(C)NC(=O)c1nc[nH]c1C(=O)N[C@H]1CC[C@H](C(=O)Nc2c(F)cc(F)cc2Cl)CC1 (stereo partly drawn) [Example 65, N^5-{trans-4-[(2-chloro-4,6-difluorophenyl)carbamoyl]cyclohexyl}-N^4-(1-methoxypropan-2-yl)-1H-imidazole-4,5-dicarboxamide] | 170 | ≥ 50000
COC[C@H](C)NC(=O)c1nc[nH]c1C(=O)N[C@H]1CC[C@H](C(=O)Nc2c(F)cc(F)cc2Cl)CC1 [Example 66, N^5-{trans-4-[(2-chloro-4,6-difluorophenyl)carbamoyl]cyclohexyl}-N^4-[(2S)-1-methoxypropan-2-yl]-1H-imidazole-4,5-dicarboxamide] | 310 | ≥ 50000
COC[C@@H](C)NC(=O)c1nc[nH]c1C(=O)N[C@H]1CC[C@H](C(=O)Nc2c(F)cc(F)cc2Cl)CC1 [Example 67, N^5-{trans-4-[(2-chloro-4,6-difluorophenyl)carbamoyl]cyclohexyl}-N^4-[(2R)-1-methoxypropan-2-yl]-1H-imidazole-4,5-dicarboxamide] | 250 | ≥ 50000
COC(C)CNC(=O)c1nc[nH]c1C(=O)N[C@H]1CC[C@H](C(=O)Nc2c(F)cc(F)cc2Cl)CC1 (stereo partly drawn) [Example 68, N^5-{trans-4-[(2-chloro-4,6-difluorophenyl)carbamoyl]cyclohexyl}-N^4-(2-methoxypropyl)-1H-imidazole-4,5-dicarboxamide] | 60 | 33000
O=C(NCC1CCCO1)c1nc[nH]c1C(=O)N[C@H]1CC[C@H](C(=O)Nc2c(F)cc(F)cc2Cl)CC1 (stereo partly drawn) [Example 69, N^5-{trans-4-[(2-chloro-4,6-difluorophenyl)carbamoyl]cyclohexyl}-N^4-(tetrahydrofuran-2-ylmethyl)-1H-imidazole-4,5-dicarboxamide] | 57 | ≥ 50000
O=C(NC[C@H]1CCCO1)c1nc[nH]c1C(=O)N[C@H]1CC[C@H](C(=O)Nc2c(F)cc(F)cc2Cl)CC1 [Example 70, N^5-{trans-4-[(2-chloro-4,6-difluorophenyl)carbamoyl]cyclohexyl}-N^4-[(2R)-tetrahydrofuran-2-ylmethyl]-1H-imidazole-4,5-dicarboxamide] | 78 | 29000
O=C(N[C@H]1CC[C@H](C(=O)Nc2ccc(F)cc2Cl)CC1)c1[nH]cnc1C(=O)N1CC(F)(F)C1 [Example 72, N-{trans-4-[(2-chloro-4-fluorophenyl)carbamoyl]cyclohexyl}-4-[(3,3-difluoroazetidin-1-yl)carbonyl]-1H-imidazole-5-carboxamide] | 55 | ≥ 50000
